In US20080207684A1, “Kinase inhibitors and methods for using the same” (Roche Palo Alto LLC, priority 2007, published 2008):

Target: T1, p38 MAP kinase (Homo sapiens, UniProt Q16539)
T1 construct: made in house; host or cells: E. coli (co-expressed with SEK-1 and MEKK)
Assay: p38 (MAP) kinase in vitro assay (transfer of γ-33P from ATP to Myelin Basic Protein)
Format: biochemical
Details: phosphorylated recombinant p38 MAP kinase, MBP substrate, γ-33P-ATP, 30° C.
Method: This example illustrates a p38 (MAP) kinase in vitro assay useful for evaluating the compounds of the invention.
The p38 MAP kinase inhibitory activity of compounds of this invention in vitro was determined by measuring the transfer of the γ-phosphate from γ-^33P-ATP by p-38 kinase to Myelin Basic Protein (MBP), using a minor modification of the method described in Ahn, et al., J. Biol. Chem. 266:4220-4227 (1991).
The phosphorylated form of the recombinant p38 MAP kinase was co-expressed with SEK-1 and MEKK in E. Coli (see, Khokhlatchev, et al., J. Biol. Chem. 272:11057-11062 (1997)) and then purified by affinity chromatography using a Nickel column.
The phosphorylated p38 MAP kinase was diluted in kinase buffer (20 mM 3-(N-morpholino)propanesulfonic acid, pH 7.2, 25 mM β-glycerol phosphate, 5 mM ethylene glycol-bis(beta-aminoethyl ether)-N,N,N′,N′-tetraacetic acid, 1 mM sodium ortho-vanadate, 1 mM dithiothreitol, 40 mM magnesium chloride). Test compound dissolved in DMSO or only DMSO (control) was added and the samples were incubated for 10 min at 30° C. The kinase reaction was initiated by the addition of a substrate cocktail containing MBP and γ-^33P-ATP. […] The phosphorylated MBP was then separated from the residual γ-^33P-ATP using a phosphocellulose membrane (Millipore, Bedfrod, Mass.) and quantitated using a scintillation counter (Packard, Meriden, Conn.).

T1 sequence (Q16539 whole entry): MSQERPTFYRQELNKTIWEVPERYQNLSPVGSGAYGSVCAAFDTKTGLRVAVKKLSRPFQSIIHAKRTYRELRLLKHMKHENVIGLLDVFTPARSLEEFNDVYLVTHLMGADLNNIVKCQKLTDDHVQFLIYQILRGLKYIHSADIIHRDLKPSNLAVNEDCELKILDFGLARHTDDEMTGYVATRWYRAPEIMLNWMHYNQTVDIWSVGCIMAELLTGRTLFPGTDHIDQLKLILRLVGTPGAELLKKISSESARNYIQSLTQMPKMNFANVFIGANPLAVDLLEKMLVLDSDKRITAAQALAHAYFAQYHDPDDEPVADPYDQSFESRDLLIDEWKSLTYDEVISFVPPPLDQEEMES

IC50: ~3 nM
SMILES: CNC(=O)c1ccc(C)c(-c2cc3[nH]nc(N4CCCCC4)c3n(C)c2=O)c1 [Compound 8, 4,N-Dimethyl-3-(4-methyl-5-oxo-3-piperidin-1-yl-4,5-dihydro-1H-pyrazolo[4,3-b]pyridin-6-yl)-benzamide]
